Source: US20240400577A1, “MODULATORS OF PROTEIN KINASES” (VIBLIOME THERAPEUTICS, LLC, priority 2021, published 2024)

What was measured:
Assay in all cases: Kinase panel enzymatic inhibition assay (Nanosyn)
Format in all cases: biochemical
Conditions in all cases: compound 5 μM; ATP at Km; 30-minute pre-incubation
LCK = molecular target: T1, LCK (Homo sapiens, UniProt P06239)
T1 construct: purchased Nanosyn (contract screening)
Method: (§1) The disclosed compounds were tested for activity against a panel of at least 300 kinases. Kinase panel screening was conducted by Nanosyn (Santa Clara, CA 95051) using an enzymatic inhibition assay accepted as valid by those skilled in the art (e.g., the Caliper LabChip® mobility shift assay, an ADP detection assay, or time-resolved fluorescence detection technology. Compounds were screened at a concentration of 5 μM using an ATP concentration at the Km for each of the respective kinases and a 30-minute pre-incubation time-point.
(§2) In Table 1 and 2, kinase inhibition is classified by: A=95% or greater, B=90%-94%, C=80%-89%, and D=79% and less with a compound concentration of 5 JIM. In Table 3 and 4, kinase inhibition is reported in terms of IC50 values corresponding to A=less than 500 nm, B=500 nm to less than 1 μM, C=1 μM to less than 10 μM, and D=10 μM or greater using a compound concentration of 5 μM.

p38a = molecular target: T2, p38a (Homo sapiens, UniProt Q16539)
T2 construct: Nanosyn (contract laboratory that ran the panel)
Method: as §1, §2

HCK = molecular target: T3, HCK (Homo sapiens, UniProt P08631)
T3 construct: purchased Nanosyn (contract screening)
Method: as §1, §2

BRK = molecular target: T4, BRK (Homo sapiens, UniProt Q13882)
T4 construct: purchased Nanosyn (contract screening)
Method: as §1, §2

SGK2 = molecular target: T5, SGK2 (Homo sapiens, UniProt Q9HBY8)
T5 construct: Nanosyn (contract laboratory that ran the panel)
T5 sequence (Q9HBY8 1-367): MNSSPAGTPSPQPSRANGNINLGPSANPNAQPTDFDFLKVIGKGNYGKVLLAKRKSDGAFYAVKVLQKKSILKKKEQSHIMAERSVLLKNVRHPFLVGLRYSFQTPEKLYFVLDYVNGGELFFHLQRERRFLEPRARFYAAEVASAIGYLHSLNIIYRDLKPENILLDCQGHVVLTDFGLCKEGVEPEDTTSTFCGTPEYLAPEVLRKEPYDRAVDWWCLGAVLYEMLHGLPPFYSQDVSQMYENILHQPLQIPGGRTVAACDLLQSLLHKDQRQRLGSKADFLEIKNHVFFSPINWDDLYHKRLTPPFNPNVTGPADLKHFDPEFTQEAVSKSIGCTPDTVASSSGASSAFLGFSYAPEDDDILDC
Method: as §1, §2

TNIK = molecular target: T6, TNIK (Homo sapiens, UniProt Q9UKE5)
T6 construct: Nanosyn (contract laboratory that ran the panel)
Method: as §1, §2

SRC = molecular target: T7, SRC (Homo sapiens, UniProt P12931)
T7 construct: Nanosyn (contract laboratory that ran the panel)
Method: as §1, §2

MAP4K2 = molecular target: T8, MAP4K2 (Homo sapiens, UniProt Q12851)
T8 construct: purchased Nanosyn (contract screening)
T8 sequence (Q12851 1-820): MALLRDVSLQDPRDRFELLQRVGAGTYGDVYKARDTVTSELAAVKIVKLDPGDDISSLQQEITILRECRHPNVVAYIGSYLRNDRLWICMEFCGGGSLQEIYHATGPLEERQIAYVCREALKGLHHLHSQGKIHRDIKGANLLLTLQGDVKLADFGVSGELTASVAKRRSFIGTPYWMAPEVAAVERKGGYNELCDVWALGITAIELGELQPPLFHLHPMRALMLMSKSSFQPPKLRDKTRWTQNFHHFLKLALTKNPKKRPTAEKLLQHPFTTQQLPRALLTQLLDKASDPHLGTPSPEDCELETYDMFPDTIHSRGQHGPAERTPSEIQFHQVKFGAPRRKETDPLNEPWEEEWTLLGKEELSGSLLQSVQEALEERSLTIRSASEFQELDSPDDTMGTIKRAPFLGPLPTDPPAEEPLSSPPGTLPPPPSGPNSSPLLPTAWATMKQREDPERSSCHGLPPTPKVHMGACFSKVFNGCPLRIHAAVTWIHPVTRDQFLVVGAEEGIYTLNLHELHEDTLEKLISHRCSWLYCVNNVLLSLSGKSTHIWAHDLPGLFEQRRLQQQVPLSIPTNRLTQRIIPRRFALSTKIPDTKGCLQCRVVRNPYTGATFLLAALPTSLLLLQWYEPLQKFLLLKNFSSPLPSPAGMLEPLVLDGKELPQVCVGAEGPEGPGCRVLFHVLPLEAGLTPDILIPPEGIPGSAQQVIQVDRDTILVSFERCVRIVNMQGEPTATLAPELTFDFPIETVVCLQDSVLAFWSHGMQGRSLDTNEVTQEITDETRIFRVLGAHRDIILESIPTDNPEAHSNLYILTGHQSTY
Method: as §1, §2

DDR2 = molecular target: T9, DDR2 (Homo sapiens, UniProt Q16832)
T9 construct: purchased Nanosyn (contract screening)
T9 sequence (Q16832 22-855): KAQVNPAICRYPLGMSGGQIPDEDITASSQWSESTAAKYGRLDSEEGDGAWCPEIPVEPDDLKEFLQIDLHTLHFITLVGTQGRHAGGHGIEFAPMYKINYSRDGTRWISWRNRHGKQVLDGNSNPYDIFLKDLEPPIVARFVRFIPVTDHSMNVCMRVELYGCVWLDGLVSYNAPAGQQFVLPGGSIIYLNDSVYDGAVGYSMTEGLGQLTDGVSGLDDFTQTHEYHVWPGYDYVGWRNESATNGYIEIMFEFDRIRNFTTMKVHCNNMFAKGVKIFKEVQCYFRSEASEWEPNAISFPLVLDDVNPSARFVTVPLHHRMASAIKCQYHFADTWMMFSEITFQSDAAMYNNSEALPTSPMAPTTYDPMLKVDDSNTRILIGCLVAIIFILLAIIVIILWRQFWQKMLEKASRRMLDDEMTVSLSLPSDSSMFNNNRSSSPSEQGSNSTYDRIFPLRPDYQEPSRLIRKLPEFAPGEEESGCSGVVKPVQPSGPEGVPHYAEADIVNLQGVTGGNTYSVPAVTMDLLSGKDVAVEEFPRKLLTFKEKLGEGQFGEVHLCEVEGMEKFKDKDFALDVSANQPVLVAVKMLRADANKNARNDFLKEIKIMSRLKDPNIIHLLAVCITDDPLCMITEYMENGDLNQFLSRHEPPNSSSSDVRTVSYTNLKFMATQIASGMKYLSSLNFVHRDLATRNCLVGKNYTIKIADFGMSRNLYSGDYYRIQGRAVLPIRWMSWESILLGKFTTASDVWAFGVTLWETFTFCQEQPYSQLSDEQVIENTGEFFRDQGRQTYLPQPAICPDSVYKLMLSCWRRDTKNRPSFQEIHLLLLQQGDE
Method: as §1, §2

COT1 = molecular target: T10, COT1 (Homo sapiens, UniProt P41279)
T10 construct: purchased Nanosyn (contract screening)
Method: as §1, §2

KDR = molecular target: T11, KDR (Homo sapiens, UniProt P35968)
T11 construct: purchased Nanosyn (contract screening)
Method: as §1, §2

T4 sequence (Q13882 whole entry): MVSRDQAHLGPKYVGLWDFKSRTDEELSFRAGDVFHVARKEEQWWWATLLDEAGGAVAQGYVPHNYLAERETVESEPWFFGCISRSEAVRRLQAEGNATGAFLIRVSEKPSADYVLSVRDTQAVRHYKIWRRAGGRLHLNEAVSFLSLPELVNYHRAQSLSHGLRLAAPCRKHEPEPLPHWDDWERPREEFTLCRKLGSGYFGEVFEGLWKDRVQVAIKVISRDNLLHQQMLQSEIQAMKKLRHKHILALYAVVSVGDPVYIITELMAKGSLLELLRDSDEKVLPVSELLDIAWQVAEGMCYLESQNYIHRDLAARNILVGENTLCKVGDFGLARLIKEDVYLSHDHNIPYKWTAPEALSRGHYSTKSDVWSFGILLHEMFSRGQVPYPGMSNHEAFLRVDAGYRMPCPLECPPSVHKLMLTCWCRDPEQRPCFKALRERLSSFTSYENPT
T1 sequence (P06239 whole entry): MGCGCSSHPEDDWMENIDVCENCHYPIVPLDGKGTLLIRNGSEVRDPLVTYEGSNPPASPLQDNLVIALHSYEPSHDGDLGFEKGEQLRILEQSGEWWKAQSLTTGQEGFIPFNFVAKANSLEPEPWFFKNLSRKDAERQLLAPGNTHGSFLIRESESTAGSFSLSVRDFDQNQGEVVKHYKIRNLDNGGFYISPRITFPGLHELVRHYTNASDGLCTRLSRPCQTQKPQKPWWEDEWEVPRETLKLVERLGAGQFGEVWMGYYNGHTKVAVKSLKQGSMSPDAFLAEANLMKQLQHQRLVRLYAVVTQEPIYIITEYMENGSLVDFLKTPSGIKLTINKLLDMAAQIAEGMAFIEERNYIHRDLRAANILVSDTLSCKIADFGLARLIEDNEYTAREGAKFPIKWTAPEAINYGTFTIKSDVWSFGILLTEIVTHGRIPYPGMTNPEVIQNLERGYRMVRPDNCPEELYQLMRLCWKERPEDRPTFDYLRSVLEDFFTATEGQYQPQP
T10 sequence (P41279 whole entry): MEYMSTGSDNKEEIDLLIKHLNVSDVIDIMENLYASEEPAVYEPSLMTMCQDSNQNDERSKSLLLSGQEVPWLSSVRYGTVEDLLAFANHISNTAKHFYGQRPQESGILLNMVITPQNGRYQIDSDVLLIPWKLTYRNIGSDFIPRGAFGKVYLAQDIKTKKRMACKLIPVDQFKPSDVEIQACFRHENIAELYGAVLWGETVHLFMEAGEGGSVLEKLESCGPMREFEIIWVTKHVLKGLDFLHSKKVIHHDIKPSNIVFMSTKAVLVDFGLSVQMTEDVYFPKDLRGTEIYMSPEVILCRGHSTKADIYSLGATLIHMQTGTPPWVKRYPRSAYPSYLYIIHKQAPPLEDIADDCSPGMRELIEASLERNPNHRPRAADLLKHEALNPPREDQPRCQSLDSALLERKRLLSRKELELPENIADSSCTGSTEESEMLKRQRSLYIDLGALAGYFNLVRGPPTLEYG
T3 sequence (P08631 whole entry): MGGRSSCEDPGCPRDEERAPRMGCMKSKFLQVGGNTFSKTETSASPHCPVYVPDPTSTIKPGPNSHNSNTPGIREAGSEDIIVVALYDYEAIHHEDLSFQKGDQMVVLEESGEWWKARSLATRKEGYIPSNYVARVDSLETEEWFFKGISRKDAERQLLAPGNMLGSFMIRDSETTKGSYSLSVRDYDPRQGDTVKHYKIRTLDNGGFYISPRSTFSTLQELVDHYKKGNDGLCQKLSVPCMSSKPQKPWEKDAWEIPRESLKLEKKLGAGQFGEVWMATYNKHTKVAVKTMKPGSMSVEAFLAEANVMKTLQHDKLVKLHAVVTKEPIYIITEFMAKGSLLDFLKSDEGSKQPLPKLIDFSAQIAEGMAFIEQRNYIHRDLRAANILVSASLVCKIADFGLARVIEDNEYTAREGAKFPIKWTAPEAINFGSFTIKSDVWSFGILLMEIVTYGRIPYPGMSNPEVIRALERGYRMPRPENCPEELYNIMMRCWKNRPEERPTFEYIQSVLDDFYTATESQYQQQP
T2 sequence (Q16539 whole entry): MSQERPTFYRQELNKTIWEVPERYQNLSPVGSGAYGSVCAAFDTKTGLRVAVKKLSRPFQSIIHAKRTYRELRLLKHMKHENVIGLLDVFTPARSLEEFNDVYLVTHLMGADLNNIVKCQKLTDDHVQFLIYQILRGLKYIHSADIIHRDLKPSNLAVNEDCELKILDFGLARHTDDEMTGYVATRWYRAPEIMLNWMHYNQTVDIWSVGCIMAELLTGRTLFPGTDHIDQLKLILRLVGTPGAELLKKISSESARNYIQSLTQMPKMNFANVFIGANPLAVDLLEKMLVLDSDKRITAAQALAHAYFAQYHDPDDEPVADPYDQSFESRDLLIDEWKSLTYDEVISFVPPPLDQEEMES
T6 sequence (Q9UKE5 whole entry): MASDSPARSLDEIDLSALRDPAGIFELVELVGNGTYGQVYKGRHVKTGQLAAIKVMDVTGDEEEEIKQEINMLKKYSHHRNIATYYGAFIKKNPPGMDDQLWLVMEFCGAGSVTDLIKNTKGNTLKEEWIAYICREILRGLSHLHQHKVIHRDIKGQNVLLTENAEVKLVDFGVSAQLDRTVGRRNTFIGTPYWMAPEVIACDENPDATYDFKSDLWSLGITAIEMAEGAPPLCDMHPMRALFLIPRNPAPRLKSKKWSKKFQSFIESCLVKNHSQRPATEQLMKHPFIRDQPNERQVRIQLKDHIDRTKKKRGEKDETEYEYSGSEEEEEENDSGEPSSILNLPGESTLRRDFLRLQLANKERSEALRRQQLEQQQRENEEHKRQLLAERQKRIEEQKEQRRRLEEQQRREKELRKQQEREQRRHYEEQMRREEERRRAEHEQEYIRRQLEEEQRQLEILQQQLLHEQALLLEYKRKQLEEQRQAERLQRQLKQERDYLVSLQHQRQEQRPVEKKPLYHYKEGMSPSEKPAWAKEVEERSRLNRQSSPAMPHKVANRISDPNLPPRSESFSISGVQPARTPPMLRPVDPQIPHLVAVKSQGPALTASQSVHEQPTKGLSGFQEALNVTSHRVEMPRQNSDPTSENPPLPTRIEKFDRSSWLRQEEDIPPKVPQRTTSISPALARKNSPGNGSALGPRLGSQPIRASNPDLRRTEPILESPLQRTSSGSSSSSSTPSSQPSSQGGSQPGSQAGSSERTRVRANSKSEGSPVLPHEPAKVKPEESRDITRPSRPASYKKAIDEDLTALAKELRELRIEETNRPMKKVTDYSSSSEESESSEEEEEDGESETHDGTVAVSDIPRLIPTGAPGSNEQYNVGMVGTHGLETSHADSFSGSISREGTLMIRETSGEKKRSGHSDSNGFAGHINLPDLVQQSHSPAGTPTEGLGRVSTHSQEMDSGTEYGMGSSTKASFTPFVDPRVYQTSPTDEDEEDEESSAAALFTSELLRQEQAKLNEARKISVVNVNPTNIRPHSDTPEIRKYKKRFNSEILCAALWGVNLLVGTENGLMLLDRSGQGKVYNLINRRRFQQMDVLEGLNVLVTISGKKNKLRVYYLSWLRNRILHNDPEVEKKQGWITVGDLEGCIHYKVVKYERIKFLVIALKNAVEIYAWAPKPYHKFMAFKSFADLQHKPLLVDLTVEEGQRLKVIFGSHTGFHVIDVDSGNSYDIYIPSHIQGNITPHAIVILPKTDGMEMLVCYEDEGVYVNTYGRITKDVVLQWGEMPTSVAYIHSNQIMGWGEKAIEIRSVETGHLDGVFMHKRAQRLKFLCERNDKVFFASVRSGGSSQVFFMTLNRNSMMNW
T11 sequence (P35968 20-1356): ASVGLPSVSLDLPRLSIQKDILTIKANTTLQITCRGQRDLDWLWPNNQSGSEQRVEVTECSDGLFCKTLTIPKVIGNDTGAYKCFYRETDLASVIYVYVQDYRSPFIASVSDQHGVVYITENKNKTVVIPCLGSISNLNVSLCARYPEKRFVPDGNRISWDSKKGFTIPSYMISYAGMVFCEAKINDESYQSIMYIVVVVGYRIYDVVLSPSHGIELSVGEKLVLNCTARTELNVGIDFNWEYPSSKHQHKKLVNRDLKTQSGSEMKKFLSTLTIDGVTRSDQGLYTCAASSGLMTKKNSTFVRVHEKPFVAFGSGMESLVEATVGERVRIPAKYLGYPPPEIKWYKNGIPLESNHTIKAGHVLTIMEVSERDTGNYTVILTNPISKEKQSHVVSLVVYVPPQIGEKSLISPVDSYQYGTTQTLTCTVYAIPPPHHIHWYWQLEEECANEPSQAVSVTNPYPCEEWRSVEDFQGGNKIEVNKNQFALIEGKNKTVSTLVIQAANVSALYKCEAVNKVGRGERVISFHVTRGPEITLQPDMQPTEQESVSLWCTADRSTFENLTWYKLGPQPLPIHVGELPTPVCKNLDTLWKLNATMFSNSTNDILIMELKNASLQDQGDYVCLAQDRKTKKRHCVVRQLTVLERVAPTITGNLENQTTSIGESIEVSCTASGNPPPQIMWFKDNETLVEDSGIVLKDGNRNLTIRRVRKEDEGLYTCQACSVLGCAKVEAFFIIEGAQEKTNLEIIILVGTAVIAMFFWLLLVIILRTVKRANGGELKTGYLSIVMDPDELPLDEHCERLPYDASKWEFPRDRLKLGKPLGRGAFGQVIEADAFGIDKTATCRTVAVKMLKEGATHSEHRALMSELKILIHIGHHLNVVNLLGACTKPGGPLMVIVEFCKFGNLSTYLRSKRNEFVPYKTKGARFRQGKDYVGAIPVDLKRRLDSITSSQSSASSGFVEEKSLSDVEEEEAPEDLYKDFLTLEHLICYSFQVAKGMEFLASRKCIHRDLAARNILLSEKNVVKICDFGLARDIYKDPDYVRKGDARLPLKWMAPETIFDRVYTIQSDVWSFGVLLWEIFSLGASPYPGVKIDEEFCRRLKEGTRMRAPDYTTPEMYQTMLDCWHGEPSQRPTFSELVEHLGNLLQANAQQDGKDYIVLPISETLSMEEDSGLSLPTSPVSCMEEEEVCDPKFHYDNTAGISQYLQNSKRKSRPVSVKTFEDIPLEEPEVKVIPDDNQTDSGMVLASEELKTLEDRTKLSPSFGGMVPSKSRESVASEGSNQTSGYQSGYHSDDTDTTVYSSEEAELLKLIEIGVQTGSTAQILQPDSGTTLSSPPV

SMILES: Cc1ccc(NC(=O)c2cc(S(C)(=O)=O)n(-c3ccc(F)cc3)n2)cc1Nc1ccc2ncn(C)c(=O)c2c1 [Ex4, 1-(4-fluorophenyl)-N-(4-methyl-3-((3-methyl-4-oxo-3,4-dihydroquinazolin-6-yl)amino)phenyl)-5-(methylsulfonyl)-1H-pyrazole-3-carboxamide]
- inhibition at 5 µM (LCK): < 79%
- inhibition at 5 µM (p38a): 80 to 89%
- inhibition at 5 µM (HCK): < 79%
- inhibition at 5 µM (BRK): < 79%
- inhibition at 5 µM (SGK2): < 79%
- inhibition at 5 µM (TNIK): < 79%
- inhibition at 5 µM (SRC): < 79%
- inhibition at 5 µM (MAP4K2): < 79%
- inhibition at 5 µM (DDR2): ≥ 95%
- inhibition at 5 µM (COT1): < 79%
- inhibition at 5 µM (KDR): < 79%

SMILES: Cc1ccc(NC(=O)c2cc([S+](C)[O-])n(-c3ccc(F)cc3)n2)cc1Nc1ccc2ncn(C)c(=O)c2c1 (stereo not shown) [Ex5, 1-(4-fluorophenyl)-N-(4-methyl-3-((3-methyl-4-oxo-3,4-dihydroquinazolin-6-yl)amino)phenyl)-5-(methylsulfinyl)-1H-pyrazole-3-carboxamide]
- inhibition at 5 µM (LCK): 90 to 94%
- inhibition at 5 µM (p38a): ≥ 95%
- inhibition at 5 µM (HCK): < 79%
- inhibition at 5 µM (BRK): < 79%
- inhibition at 5 µM (SGK2): < 79%
- inhibition at 5 µM (TNIK): < 79%
- inhibition at 5 µM (SRC): < 79%
- inhibition at 5 µM (MAP4K2): < 79%
- inhibition at 5 µM (DDR2): < 79%
- inhibition at 5 µM (COT1): < 79%
- inhibition at 5 µM (KDR): < 79%

SMILES: Cc1ccc(NC(=O)c2cc([S+](C)[O-])n(-c3ccc(F)cc3)n2)cc1C#Cc1cnc2cccnn12 (stereo not shown) [Ex6, 1-(4-fluorophenyl)-N-(3-(imidazo[1,2-b]pyridazin-3-ylethynyl)-4-methylphenyl)-5-(methylsulfinyl)-1H-pyrazole-3-carboxamide]
- inhibition at 5 µM (LCK): ≥ 95%
- inhibition at 5 µM (p38a): 90 to 94%
- inhibition at 5 µM (HCK): ≥ 95%
- inhibition at 5 µM (BRK): 80 to 89%
- inhibition at 5 µM (SGK2): 90 to 94%
- inhibition at 5 µM (TNIK): < 79%
- inhibition at 5 µM (SRC): 90 to 94%
- inhibition at 5 µM (MAP4K2): < 79%
- inhibition at 5 µM (DDR2): < 79%
- inhibition at 5 µM (COT1): < 79%
- inhibition at 5 µM (KDR): < 79%

SMILES: CNC(=O)c1cc(Oc2ccc(F)c(NC(=O)c3cc([S+](C)[O-])n(-c4ccc(F)cc4)n3)c2)ccn1 (stereo not shown) [Ex7, 4-(4-fluoro-3-(1-(4-fluorophenyl)-5-(methylsulfinyl)-1H-pyrazole-3-carboxamido)phenoxy)-N-methylpicolinamide]
- inhibition at 5 µM (LCK): < 79%
- inhibition at 5 µM (p38a): < 79%
- inhibition at 5 µM (HCK): < 79%
- inhibition at 5 µM (BRK): < 79%
- inhibition at 5 µM (SGK2): < 79%
- inhibition at 5 µM (TNIK): < 79%
- inhibition at 5 µM (SRC): < 79%
- inhibition at 5 µM (MAP4K2): < 79%
- inhibition at 5 µM (DDR2): < 79%
- inhibition at 5 µM (COT1): < 79%
- inhibition at 5 µM (KDR): < 79%

SMILES: CSc1cc(C(=O)Nc2cc(Oc3ccnc(C(=O)NC4CNC4)c3)ccc2F)nn1-c1ccc(F)cc1 [Ex8, N-(azetidin-3-yl)-4-(4-fluoro-3-(1-(4-fluorophenyl)-5-(methylthio)-1H-pyrazole-3-carboxamido)phenoxy)picolinamide]
- inhibition at 5 µM (LCK): < 79%
- inhibition at 5 µM (p38a): < 79%
- inhibition at 5 µM (HCK): < 79%
- inhibition at 5 µM (BRK): < 79%
- inhibition at 5 µM (SGK2): < 79%
- inhibition at 5 µM (TNIK): 90 to 94%
- inhibition at 5 µM (SRC): < 79%
- inhibition at 5 µM (MAP4K2): 80 to 89%
- inhibition at 5 µM (DDR2): < 79%
- inhibition at 5 µM (COT1): 90 to 94%
- inhibition at 5 µM (KDR): < 79%
